Results from patent US12421225B2, “Heteroaromatic amide derivative and medicament containing the same” (KAKEN PHARMACEUTICAL CO., LTD., priority 2018, dated 2025).
pIC50: −log10 of the molar value.

Experiments:
human Nav1.7 = human Nav1.7 (Homo sapiens (Human), UniProt Q15858); test: Human Nav1.7 inhibitory activity evaluation (automated patch clamp QPatch16X, HEK293A cells stably expressing human Nav1.7 and human Navβ1); type: cell-based
In short: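 IC50 calculated from the concentration-response of inward current evoked by the second −10 mV, 50 ms depolarisation, which follows a 15 s conditioning step at roughly 30-40% inactivation and a 100 ms −120 mV interval. Cells: HEK293A expressing human Nav1.7/Navβ1, automated patch clamp, room temperature, 0.1% DMSO final.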

human Nav1.5 = human Nav1.5 (Homo sapiens (Human), UniProt Q14524); test: Human Nav1.5 inhibitory activity evaluation (automated patch clamp QPatch16X, HEK293 cells stably expressing human Nav1.5); type: cell-based
Sequence of human Nav1.5 (Q14524 whole entry): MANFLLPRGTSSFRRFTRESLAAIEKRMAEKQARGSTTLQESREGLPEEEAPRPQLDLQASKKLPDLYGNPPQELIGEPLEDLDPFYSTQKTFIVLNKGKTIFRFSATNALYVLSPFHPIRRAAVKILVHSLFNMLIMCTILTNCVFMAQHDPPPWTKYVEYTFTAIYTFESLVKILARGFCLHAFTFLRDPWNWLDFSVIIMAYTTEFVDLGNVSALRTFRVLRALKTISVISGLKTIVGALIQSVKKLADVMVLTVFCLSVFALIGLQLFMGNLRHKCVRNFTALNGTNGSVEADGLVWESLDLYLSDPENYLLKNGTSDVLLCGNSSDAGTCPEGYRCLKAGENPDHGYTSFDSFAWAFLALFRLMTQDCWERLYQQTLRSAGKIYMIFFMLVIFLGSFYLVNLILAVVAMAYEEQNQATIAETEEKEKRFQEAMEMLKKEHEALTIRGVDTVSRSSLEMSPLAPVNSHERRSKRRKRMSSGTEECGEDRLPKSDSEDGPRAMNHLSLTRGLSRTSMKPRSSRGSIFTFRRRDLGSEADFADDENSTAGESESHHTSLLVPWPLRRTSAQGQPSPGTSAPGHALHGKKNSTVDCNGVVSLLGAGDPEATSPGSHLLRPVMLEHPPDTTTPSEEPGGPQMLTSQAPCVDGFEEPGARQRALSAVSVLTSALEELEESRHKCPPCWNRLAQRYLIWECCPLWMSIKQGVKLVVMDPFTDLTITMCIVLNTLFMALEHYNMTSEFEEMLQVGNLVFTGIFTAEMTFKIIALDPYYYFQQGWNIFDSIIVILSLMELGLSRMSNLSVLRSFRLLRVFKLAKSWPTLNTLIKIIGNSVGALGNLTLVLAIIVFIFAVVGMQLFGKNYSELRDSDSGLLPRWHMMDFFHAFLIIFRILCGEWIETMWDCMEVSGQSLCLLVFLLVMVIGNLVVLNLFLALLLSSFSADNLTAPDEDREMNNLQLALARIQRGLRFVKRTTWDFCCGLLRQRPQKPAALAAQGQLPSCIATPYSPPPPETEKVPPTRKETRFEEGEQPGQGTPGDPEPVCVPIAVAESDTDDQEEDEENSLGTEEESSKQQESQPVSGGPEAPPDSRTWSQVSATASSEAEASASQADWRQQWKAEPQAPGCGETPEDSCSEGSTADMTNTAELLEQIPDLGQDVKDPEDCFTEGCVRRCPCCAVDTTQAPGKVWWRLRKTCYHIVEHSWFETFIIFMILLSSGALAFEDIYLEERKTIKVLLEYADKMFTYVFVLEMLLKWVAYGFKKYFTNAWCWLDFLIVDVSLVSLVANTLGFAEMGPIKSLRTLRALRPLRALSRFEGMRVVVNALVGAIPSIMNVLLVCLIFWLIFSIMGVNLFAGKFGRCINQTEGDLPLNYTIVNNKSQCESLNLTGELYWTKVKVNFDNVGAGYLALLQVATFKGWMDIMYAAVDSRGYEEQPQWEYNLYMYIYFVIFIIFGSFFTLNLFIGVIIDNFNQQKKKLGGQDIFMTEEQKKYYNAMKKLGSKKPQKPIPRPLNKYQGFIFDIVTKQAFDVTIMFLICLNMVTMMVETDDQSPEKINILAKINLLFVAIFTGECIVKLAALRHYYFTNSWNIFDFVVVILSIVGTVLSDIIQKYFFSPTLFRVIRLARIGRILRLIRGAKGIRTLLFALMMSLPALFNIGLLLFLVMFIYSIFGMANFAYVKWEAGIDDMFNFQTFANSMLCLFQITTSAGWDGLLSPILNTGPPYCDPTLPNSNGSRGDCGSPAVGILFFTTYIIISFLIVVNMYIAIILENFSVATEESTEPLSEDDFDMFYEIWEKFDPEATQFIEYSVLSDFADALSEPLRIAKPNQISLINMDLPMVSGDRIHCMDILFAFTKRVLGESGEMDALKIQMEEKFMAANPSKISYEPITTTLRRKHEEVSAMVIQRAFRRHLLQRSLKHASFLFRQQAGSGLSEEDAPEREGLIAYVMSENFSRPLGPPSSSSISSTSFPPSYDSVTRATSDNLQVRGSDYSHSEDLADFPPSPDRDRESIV
In short: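 IC50 derived from concentration-response of inward current at the 20th of 20 action-potential-mimicking pulses (holding −80 mV, leak corrected with −100 mV step). HEK293 cells stably expressing human Nav1.5, room temperature, extracellular pH 7.4, intracellular CsF-based pH 7.3, 0.1% DMSO.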

[1] = human Nav1.7, automated patch clamp
[2] = human Nav1.5, automated patch clamp
[3] = HEK293A cells stably expressing human Nav1.7 and human Navβ1, automated patch clamp QPatch16X
[4] = HEK293 cells stably expressing human Nav1.5, automated patch clamp QPatch16X

Sequence of human Nav1.7 (Q15858 whole entry): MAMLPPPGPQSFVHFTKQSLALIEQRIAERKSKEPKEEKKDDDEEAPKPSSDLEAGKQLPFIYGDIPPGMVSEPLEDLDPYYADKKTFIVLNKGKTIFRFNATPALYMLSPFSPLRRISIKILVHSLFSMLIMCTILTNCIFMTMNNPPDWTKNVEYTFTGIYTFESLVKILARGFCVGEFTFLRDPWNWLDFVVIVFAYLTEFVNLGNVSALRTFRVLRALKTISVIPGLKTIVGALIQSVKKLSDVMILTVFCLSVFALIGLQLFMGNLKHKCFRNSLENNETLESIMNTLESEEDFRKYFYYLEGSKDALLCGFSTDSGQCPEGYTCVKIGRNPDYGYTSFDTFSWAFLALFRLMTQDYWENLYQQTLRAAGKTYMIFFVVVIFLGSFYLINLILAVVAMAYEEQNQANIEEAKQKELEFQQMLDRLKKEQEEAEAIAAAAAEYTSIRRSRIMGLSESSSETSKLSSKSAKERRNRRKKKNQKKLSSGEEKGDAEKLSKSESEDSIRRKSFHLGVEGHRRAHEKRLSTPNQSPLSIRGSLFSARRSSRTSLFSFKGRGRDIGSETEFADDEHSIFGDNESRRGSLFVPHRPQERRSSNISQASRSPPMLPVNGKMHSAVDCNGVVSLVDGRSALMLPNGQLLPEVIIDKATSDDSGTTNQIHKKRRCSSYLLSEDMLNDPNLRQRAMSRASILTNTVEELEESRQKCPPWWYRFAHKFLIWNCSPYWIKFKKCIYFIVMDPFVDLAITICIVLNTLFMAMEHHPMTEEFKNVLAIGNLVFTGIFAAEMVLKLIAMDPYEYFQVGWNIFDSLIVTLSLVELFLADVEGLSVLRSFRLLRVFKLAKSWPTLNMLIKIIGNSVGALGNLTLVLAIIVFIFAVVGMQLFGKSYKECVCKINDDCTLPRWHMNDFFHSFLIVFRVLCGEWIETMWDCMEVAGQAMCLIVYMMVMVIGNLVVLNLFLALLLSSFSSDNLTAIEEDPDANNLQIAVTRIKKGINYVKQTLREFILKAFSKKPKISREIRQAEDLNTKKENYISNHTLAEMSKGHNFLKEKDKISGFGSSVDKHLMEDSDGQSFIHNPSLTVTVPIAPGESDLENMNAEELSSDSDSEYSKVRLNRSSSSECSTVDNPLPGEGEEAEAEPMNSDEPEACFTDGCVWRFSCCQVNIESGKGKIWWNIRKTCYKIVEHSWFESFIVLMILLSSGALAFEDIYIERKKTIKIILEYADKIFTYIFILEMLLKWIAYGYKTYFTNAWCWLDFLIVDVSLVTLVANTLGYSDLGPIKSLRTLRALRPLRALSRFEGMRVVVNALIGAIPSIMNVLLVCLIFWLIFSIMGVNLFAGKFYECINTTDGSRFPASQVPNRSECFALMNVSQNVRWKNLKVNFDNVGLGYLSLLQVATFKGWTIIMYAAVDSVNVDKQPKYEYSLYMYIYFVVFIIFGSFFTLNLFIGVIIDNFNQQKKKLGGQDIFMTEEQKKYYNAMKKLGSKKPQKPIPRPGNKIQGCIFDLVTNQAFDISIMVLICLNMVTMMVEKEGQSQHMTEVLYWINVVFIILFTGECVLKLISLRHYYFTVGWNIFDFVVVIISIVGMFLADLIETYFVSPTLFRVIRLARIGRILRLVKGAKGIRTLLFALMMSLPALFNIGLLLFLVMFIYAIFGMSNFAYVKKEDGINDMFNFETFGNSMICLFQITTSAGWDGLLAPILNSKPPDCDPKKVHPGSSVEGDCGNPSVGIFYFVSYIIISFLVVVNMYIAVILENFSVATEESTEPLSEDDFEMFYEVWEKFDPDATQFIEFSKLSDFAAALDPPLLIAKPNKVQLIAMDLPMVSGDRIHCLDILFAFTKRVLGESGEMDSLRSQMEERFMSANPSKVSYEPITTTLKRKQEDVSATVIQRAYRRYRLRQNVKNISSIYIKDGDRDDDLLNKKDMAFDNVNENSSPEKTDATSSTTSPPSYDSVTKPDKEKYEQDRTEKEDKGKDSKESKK
Sequence of human Nav1.7 (Q07699 19-218 partner): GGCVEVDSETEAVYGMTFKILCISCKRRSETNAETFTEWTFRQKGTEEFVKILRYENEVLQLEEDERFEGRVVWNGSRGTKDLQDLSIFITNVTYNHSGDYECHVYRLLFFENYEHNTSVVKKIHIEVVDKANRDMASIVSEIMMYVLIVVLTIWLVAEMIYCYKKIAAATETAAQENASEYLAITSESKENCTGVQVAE

With `N#Cc1ccc2c(c1)C[C@@H](NC(=O)c1cc3n(n1)CC(CCCOCC(F)F)O3)CO2` (single isomer, unassigned) [604 (isomer A)] the pIC50 (human Nav1.7; [1]) was greater than 6.00 and the pIC50 (human Nav1.5; [2]) was 5.52 to 6.00.

Compound `O=C(N[C@H]1COc2ccccc2C1)c1cn2c(n1)CCC(OCCOC(F)(F)F)C2` (some centres unmarked) [Example 321] has a pIC50 (human Nav1.7; [1]) greater than 5.00 and a pIC50 (human Nav1.5; [2]) of no more than 5.52.

`N#Cc1ccc2c(c1)C[C@@H](NC(=O)c1cc3n(n1)CCC(CSC(F)(F)F)O3)CO2` (some centres unmarked) [Example 155] gave a pIC50 (human Nav1.7; [1]) greater than 5.00 and a pIC50 (human Nav1.5; [2]) of no more than 5.52.

`O=C(c1cn2c(n1)CNC(c1cccc(OC(F)(F)F)c1)C2)N1CCOC(c2cccc(C(F)(F)F)c2)C1` (centres unmarked) [Example 337] was tested, and the pIC50 (human Nav1.7; [1]) was greater than 5.00 and the pIC50 (human Nav1.5; [2]) was no more than 5.52.

`O=C(N[C@H]1COc2ccc(COCC(F)(F)F)cc2C1)c1cc2n(n1)CC(C(F)(F)F)O2` (single isomer, unassigned) [184 (isomer A)] gave a pIC50 (human Nav1.7; [1]) greater than 6.00 and a pIC50 (human Nav1.5; [2]) of 5.52 to 6.00.

With `O=C(N[C@H]1COc2ccc(Cl)cc2C1)c1cc2n(n1)CCN(CC1CCC1(F)F)C2` (some centres unmarked) [Example 494] the pIC50 (human Nav1.7; [1]) was greater than 6.00 and the pIC50 (human Nav1.5; [2]) was 5.52 to 6.00.

Compound `O=C(c1cn2c(n1)CNC(c1cccc(OC(F)(F)F)c1)C2)N1CC[C@H](Oc2cccc(C(F)F)n2)C1` (some centres unmarked) [Example 336] has a pIC50 (human Nav1.7; [1]) greater than 5.00 and a pIC50 (human Nav1.5; [2]) of 5.52 to 6.00.

In the case of `CN1Cc2nc(C(=O)NCCc3cccc(N4CCOCC4)c3)cn2CC1c1ccccc1` (centres unmarked) [Example 62], the pIC50 (human Nav1.7; [3]) was greater than 5.00 and the pIC50 (human Nav1.5; [4]) was no more than 5.52.

`CCOCc1ccc2c(c1)C[C@@H](NC(=O)c1cc3n(n1)CCC(c1ccccc1F)O3)CO2` (some centres unmarked) [Example 83] gave a pIC50 (human Nav1.7; [3]) greater than 6.00 and a pIC50 (human Nav1.5; [4]) of 5.52 to 6.00.

In the case of `O=C(N[C@H]1COc2ccc(CC(F)F)cc2C1)c1cc2n(n1)CCC(COCC(F)(F)F)O2` (some centres unmarked) [Example 126], the pIC50 (human Nav1.7; [3]) was greater than 6.00 and the pIC50 (human Nav1.5; [4]) was 5.52 to 6.00.

For `CCc1ccc2c(c1)CC(NC(=O)c1cn3c(n1)CCC(C(F)(F)F)C3)CO2` (centres unmarked) [Example 295], the pIC50 (human Nav1.7; [1]) was greater than 6.00 and the pIC50 (human Nav1.5; [2]) was no more than 5.52.

`O=C(N[C@H]1COc2ccc(Cl)cc2C1)c1cc2n(n1)CCN(CC(F)(F)C1CC1)C2` [Example 495] was tested, and the pIC50 (human Nav1.7; [1]) was greater than 6.00 and the pIC50 (human Nav1.5; [2]) was no more than 5.52.

In the case of `O=C(N[C@H]1COc2ccc(CCOC(F)F)cc2C1)c1cc2n(n1)CCC(COC(F)F)O2` (single isomer, unassigned) [142 (isomer A)], the pIC50 (human Nav1.7; [1]) was greater than 6.00 and the pIC50 (human Nav1.5; [2]) was 5.52 to 6.00.

Compound `O=C(N[C@H]1COc2ccc(-c3cncnc3)cc2C1)c1cc2n(n1)CCC(c1ccccc1F)O2` (some centres unmarked) [Example 357] has a pIC50 (human Nav1.7; [1]) greater than 6.00 and a pIC50 (human Nav1.5; [2]) of no more than 5.52.

`CN1Cc2nc(C(=O)NCCc3ccccc3)cn2CC1c1ccccc1` (centres unmarked) [Example 58] was tested, and the pIC50 (human Nav1.7; [3]) was greater than 5.00 and the pIC50 (human Nav1.5; [4]) was no more than 5.52.

Work on `O=C(N[C@H]1COc2ccc(Cl)cc2C1)c1cc2n(n1)CCC(COCc1cccc(C(F)(F)F)n1)O2` (some centres unmarked) [Example 105] yielded a pIC50 (human Nav1.7; [3]) greater than 6.00 and a pIC50 (human Nav1.5; [4]) greater than 6.00.

`N#Cc1ccc2c(c1)C(F)[C@@H](NC(=O)c1cc3n(n1)CCC(COCC1CC1)O3)CO2` (single isomer, unassigned) [617 (isomer C)] showed a pIC50 (human Nav1.7; [1]) greater than 5.00 and a pIC50 (human Nav1.5; [2]) of no more than 5.52.

`CCCC1CCn2nc(C(=O)N[C@H]3COc4ccc(Cl)cc4C3)cc2O1` (some centres unmarked) [Example 389] was tested, and the pIC50 (human Nav1.7; [1]) was greater than 6.00 and the pIC50 (human Nav1.5; [2]) was 5.52 to 6.00.

Work on `CCCOCC1CCn2nc(C(=O)N[C@H]3COc4ccc(C#N)cc4C3)cc2O1` (single isomer, unassigned) [101 (isomer B)] yielded a pIC50 (human Nav1.7; [3]) greater than 5.00 and a pIC50 (human Nav1.5; [4]) of no more than 5.52.

`COC1c2cc(C(F)(F)F)ccc2OC[C@@H]1NC(=O)c1cc2n(n1)CCC(C(F)F)O2` (some centres unmarked) [Example 568] showed a pIC50 (human Nav1.7; [1]) greater than 6.00 and a pIC50 (human Nav1.5; [2]) of no more than 5.52.

`O=C(N[C@H]1COc2ccc(-c3ccccn3)cc2C1)c1cc2n(n1)CC(CCOCC(F)(F)F)O2` (single isomer, unassigned) [207 (isomer B)] gave a pIC50 (human Nav1.7; [1]) greater than 6.00 and a pIC50 (human Nav1.5; [2]) of 5.52 to 6.00.

`O=C(N[C@H]1COc2ccc(COCC(F)(F)F)cc2C1)c1cc2n(n1)CCC(COC(F)F)O2` (single isomer, unassigned) [140 (isomer B)] gave a pIC50 (human Nav1.7; [1]) greater than 6.00 and a pIC50 (human Nav1.5; [2]) of 5.52 to 6.00.

`N#Cc1ccc2c(c1)C[C@@H](NC(=O)c1cc3n(n1)CC(CCSCC(F)(F)F)O3)CO2` (single isomer, unassigned) [244 (isomer B)] showed a pIC50 (human Nav1.7; [1]) greater than 6.00 and a pIC50 (human Nav1.5; [2]) greater than 6.00.

In the case of `Cc1ccccc1C1CCn2nc(C(=O)N[C@H]3COc4ccccc4C3)cc2C1` (some centres unmarked) [Example 68], the pIC50 (human Nav1.7; [3]) was greater than 5.00 and the pIC50 (human Nav1.5; [4]) was no more than 5.52.

Compound `N#CC1(COCC2CCn3nc(C(=O)N[C@H]4COc5ccc(Cl)cc5C4)cc3O2)CC1` (single isomer, unassigned) [563 (isomer B)] has a pIC50 (human Nav1.7; [1]) greater than 6.00 and a pIC50 (human Nav1.5; [2]) of no more than 5.52.

Work on `CC1(COCC2CCn3nc(C(=O)N[C@H]4COc5ccc(C#N)cc5C4)cc3O2)CC1` (single isomer, unassigned) [113 (isomer B)] yielded a pIC50 (human Nav1.7; [3]) greater than 6.00 and a pIC50 (human Nav1.5; [4]) greater than 6.00.

`O=C(N[C@H]1COc2ccc(COCC(F)(F)F)cc2C1)c1cc2n(n1)CC(COCC1CC1)O2` (single isomer, unassigned) [186 (isomer B)] showed a pIC50 (human Nav1.7; [1]) greater than 6.00 and a pIC50 (human Nav1.5; [2]) of 5.52 to 6.00.

For `Cc1ccc(C2Cn3cc(C(=O)N[C@H]4COc5ccccc5C4)nc3CN2)s1` (some centres unmarked) [Example 43], the pIC50 (human Nav1.7; [3]) was greater than 5.00 and the pIC50 (human Nav1.5; [4]) was no more than 5.52.
